The text below walks through data of ChEMBL document CHEMBL1152164, “The first X-ray crystal structure of the glucocorticoid receptor bound to a non-steroidal agonist” (Bioorg Med Chem Lett, 2008).

SMILES strings stand for the structures.

Assay [1] concerns the target T1, Glucocorticoid receptor (Homo sapiens, UniProt P04150).
T1 sequence (P04150 whole entry): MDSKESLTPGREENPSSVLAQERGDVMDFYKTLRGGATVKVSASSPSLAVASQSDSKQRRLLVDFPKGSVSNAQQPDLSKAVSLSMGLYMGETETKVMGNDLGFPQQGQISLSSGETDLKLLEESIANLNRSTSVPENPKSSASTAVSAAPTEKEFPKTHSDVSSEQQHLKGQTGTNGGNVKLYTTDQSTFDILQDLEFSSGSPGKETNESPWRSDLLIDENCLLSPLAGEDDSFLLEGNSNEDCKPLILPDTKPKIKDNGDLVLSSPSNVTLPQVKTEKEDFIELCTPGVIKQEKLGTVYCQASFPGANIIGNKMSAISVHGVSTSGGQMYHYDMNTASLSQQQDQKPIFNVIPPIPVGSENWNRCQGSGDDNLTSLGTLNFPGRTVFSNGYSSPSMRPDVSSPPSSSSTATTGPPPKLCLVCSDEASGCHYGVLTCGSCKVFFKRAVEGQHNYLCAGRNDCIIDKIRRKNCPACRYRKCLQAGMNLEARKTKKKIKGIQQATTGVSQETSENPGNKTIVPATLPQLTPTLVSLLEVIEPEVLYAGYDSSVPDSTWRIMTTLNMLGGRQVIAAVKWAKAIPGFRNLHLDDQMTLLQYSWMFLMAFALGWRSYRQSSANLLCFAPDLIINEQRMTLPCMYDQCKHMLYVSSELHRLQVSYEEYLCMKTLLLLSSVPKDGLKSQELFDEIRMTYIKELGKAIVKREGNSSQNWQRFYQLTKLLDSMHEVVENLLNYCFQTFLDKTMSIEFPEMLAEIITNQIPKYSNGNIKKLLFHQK
As to the kind of experiment: Binding affinity to glucocorticoid receptor.

Assay [2] deals with T1, Glucocorticoid receptor. As to the kind of experiment: Agonist activity at glucocorticoid receptor by MMTV transactivation assay. It counts as functional.
Assay [3] concerns the target T2, Androgen receptor (Homo sapiens, UniProt P10275).
T2 sequence (P10275 whole entry): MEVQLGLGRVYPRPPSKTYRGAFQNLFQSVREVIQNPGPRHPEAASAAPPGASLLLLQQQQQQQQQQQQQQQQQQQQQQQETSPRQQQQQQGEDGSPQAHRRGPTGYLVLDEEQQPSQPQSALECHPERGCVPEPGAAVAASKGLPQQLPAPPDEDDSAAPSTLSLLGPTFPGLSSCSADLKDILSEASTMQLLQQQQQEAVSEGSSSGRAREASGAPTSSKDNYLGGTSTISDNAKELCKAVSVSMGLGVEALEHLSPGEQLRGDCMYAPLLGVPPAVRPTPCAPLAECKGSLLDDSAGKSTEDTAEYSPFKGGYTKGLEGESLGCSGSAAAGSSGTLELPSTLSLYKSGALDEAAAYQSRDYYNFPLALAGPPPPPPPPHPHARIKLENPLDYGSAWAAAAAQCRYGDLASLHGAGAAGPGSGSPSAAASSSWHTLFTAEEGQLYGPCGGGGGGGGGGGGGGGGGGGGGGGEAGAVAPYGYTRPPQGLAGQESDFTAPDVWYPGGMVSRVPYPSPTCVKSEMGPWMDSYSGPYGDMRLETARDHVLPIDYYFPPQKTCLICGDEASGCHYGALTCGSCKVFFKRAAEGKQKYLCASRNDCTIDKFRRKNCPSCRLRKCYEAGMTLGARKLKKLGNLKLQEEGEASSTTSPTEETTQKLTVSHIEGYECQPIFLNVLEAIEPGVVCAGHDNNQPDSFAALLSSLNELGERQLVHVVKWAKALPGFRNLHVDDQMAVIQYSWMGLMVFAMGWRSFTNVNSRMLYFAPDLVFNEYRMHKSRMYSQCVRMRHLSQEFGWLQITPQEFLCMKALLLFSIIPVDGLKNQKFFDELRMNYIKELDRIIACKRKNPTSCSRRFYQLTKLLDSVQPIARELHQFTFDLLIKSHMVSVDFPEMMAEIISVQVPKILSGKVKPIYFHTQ
The assay is described as follows: Binding affinity to androgen receptor.

Assay [4] addresses T3, Progesterone receptor (Homo sapiens, UniProt P06401).
T3 sequence (P06401 whole entry): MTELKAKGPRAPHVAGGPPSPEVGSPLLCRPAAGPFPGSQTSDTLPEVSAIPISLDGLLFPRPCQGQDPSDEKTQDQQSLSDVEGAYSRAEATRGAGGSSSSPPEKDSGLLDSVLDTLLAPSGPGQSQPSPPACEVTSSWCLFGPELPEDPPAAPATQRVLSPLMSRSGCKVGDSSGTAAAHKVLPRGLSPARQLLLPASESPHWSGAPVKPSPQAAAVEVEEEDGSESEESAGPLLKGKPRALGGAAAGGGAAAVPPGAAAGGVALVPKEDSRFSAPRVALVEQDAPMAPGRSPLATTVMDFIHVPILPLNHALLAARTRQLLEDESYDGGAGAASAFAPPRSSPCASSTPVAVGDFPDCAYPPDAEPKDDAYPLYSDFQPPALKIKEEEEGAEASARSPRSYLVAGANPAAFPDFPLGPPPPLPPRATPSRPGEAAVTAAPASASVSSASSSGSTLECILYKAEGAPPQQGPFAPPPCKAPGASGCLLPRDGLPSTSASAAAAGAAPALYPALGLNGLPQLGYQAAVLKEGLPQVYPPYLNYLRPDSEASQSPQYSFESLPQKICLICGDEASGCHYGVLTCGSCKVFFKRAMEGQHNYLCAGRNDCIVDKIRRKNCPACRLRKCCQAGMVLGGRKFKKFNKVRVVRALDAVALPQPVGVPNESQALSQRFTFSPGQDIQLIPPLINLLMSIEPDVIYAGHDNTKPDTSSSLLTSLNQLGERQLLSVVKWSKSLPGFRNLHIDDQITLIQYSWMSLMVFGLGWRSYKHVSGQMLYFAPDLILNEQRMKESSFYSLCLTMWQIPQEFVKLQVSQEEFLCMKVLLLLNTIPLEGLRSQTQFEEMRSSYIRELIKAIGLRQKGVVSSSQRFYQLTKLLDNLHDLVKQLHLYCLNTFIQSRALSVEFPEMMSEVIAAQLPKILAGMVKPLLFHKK
As to the kind of experiment: Binding affinity to progesterone receptor.

Assay [5] deals with T4, Mineralocorticoid receptor (Homo sapiens, UniProt P08235).
T4 sequence (P08235 whole entry): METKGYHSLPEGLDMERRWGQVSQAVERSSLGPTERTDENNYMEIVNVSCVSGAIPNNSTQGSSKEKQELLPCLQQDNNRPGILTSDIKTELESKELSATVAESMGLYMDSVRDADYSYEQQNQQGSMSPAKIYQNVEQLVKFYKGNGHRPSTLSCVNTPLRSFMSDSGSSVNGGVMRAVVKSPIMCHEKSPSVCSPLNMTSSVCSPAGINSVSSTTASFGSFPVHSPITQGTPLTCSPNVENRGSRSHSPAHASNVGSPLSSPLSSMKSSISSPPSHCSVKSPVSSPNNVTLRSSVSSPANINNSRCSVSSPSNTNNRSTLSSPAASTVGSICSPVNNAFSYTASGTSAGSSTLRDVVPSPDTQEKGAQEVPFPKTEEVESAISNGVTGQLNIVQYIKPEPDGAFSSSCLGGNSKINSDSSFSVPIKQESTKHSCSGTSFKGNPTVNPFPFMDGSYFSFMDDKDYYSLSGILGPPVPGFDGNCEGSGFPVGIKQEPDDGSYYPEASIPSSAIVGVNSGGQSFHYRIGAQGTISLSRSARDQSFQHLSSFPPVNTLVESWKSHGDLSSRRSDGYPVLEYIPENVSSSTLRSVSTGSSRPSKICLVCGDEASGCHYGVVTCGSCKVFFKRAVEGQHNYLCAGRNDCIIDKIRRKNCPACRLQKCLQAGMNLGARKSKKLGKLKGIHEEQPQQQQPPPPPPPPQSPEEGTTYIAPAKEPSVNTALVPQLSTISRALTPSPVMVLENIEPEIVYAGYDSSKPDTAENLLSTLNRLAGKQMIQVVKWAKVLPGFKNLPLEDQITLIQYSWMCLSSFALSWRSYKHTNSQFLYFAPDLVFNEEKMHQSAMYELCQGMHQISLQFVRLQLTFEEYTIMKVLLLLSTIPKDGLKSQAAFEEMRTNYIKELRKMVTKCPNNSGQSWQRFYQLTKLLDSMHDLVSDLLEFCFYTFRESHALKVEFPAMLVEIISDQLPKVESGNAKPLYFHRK
The assay is described as follows: Binding affinity to mineralocorticoid receptor.

A word on the IC50: it is the point on the concentration scale where inhibition reaches its midpoint. High values mean a need for much substance, low ones inhibition by little substance. Usually EC50 stands for the concentration at which the effect is half-maximal. A low value points to a more potent agent. `CCN(C[C@](O)(CNC(=O)c1cnn(-c2ccc(F)cc2)c1N)C(F)(F)F)C(=O)c1c(Cl)cccc1Cl` gave an IC50 in assay [1] of 3.16 nM. Also, the concentration giving a half-maximal response (EC50) was 2 nM in assay [2], greater than 10000 nM in assay [3], greater than 10000 nM in assay [4] and greater than 10000 nM in assay [5].
